Several values for one entry are separate records, joined by “and”; a condition that tells them apart may be missing. Equal values may be shown once. Read-outs that look alike come from different tables or passages of the source.
Tests used:
CA VII = molecular target: T1, CA VII (Homo sapiens, UniProt P43166); assay: Fluorescent thermal shift assay (FTSA), CA VII; type: binding
T1 construct: made in house

CA VI = molecular target: T2, CA VI (Homo sapiens, UniProt P23280); assay: Fluorescent thermal shift assay (FTSA), CA VI; type: binding; conditions: FTSA, pH 7.0, 37 °C; read-out: Compound Dissociation Constants Kd for CA VI
T2 construct: made in house
T2 sequence (P23280 18-308): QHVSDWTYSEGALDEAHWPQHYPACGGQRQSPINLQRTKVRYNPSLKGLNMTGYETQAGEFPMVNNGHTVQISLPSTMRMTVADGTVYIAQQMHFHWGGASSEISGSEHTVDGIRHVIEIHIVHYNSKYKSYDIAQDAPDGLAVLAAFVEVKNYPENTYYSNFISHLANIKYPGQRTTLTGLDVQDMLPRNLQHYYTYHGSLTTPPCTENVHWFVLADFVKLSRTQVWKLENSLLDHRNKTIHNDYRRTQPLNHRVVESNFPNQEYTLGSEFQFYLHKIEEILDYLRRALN

CA I = molecular target: T3, CA I (Homo sapiens, UniProt P00915); assay: Fluorescent thermal shift assay (FTSA), CA I; type: binding
T3 construct: made in house
T3 sequence (P00915 whole entry): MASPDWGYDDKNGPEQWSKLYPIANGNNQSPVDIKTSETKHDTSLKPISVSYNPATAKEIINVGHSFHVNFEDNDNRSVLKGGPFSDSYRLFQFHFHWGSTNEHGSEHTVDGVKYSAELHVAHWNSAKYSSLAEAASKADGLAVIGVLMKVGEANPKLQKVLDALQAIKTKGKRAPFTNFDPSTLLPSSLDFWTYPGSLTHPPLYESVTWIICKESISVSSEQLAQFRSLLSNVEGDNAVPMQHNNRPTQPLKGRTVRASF

CA XIII = molecular target: T4, CA XIII (Homo sapiens, UniProt Q8N1Q1); assay: Fluorescent thermal shift assay (FTSA), CA XIII; type: binding; conditions: FTSA, pH 7.0, 37 °C; read-out: Compound Dissociation Constants Kd for CA XIII
T4 construct: made in house
T4 sequence (Q8N1Q1 whole entry): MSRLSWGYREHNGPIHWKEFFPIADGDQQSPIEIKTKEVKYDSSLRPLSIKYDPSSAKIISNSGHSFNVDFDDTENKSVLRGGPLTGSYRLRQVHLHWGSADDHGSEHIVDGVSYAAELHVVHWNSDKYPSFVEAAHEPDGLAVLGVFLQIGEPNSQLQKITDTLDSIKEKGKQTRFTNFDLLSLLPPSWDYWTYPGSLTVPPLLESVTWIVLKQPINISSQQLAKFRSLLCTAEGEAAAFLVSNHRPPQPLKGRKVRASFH

CA II = molecular target: T5, CA II (Homo sapiens, UniProt P00918); assay: Fluorescent thermal shift assay (FTSA), CA II; type: binding; conditions: pH 7.0, 37 °C, read-out: Compound Dissociation Constants Kd for CA II
T5 construct: made in house

CA XII = molecular target: T6, CA XII (Homo sapiens, UniProt O43570); assay: Fluorescent thermal shift assay (FTSA), CA XII; type: binding; conditions: FTSA, pH 7.0, 37 °C; read-out: Compound Dissociation Constants Kd for CA XII
T6 construct: made in house
T6 sequence (O43570 30-289 limits assumed): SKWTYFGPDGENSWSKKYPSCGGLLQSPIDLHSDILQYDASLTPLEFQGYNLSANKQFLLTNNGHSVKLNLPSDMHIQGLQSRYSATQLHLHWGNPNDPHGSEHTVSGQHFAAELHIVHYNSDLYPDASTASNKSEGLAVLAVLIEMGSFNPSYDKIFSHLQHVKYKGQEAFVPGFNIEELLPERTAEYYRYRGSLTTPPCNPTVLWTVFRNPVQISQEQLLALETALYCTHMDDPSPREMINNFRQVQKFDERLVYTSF

[1] = FTSA, pH 7.0, 37 °C, read-out: Compound Dissociation Constants Kd for CA VII
[2] = FTSA, pH 7.0, 37 °C, read-out: Compound Dissociation Constants Kd for CA I

T1 sequence (P43166 whole entry): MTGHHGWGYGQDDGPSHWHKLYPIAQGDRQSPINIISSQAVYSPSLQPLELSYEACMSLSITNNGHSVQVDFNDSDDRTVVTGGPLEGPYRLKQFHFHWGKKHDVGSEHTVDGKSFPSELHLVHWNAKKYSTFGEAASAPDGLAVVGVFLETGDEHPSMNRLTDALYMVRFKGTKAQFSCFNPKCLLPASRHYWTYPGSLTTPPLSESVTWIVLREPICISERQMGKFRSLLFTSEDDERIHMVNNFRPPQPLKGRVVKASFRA

Row | Compound | Kd (CA VII; [1]) | Kd (CA VI) | Kd (CA I; [2]) | Kd (CA XIII) | Kd (CA II) | Kd (CA XII) | melting point | selectivity: bound to CA I times stronger than to CA II (CA I; ratio of FTSA Kd) | selectivity: bound to CA I times stronger than to CA VI (CA I; ratio of FTSA Kd) | selectivity: bound to CA I times stronger than to CA VII (CA I; ratio of FTSA Kd) | selectivity: bound to CA I times stronger than to CA XII (CA I; ratio of FTSA Kd) | selectivity: bound to CA I times stronger than to CA XIII (CA I; ratio of FTSA Kd) | times more weakly bound to CA I than SA (CA I; ratio of Kd, FTSA) | CA I binding in the presence (32) versus absence (34) of the diazo group (CA I; comparison of Kd of 32 and 34) | Kd (CA VII) | Kd (CA I)
1 | NS(=O)(=O)c1ccc(NCCc2n[nH]c(=S)n2-c2ccccc2)cc1 [Compound 23, 4-{[2-(4-Phenyl-5-sulfanylidene-4,5-dihydro-1H-1,2,4-triazol-3-yl)ethyl]amino}benzene-1-sulfonamide] | 6.67 µM | 11.1 µM | 10 µM | 10 µM | 2 µM | 6.67 µM | 253 to 254 °C |  |  |  |  |  |  |  |  | 
2 | CCSc1nnc(CCNc2ccc(S(N)(=O)=O)cc2)o1 [Compound 25, 4-({2-[5-(Ethylsulfanyl)-1,3,4-oxadiazol-2-yl]ethyl}amino)benzene-1-sulfonamide] | 5.6 µM | 28.6 µM | 5.88 µM | 3.33 µM | 1.18 µM | 10.5 µM |  |  |  |  |  |  |  |  |  | 
3 | NS(=O)(=O)c1ccc(/N=N/N2CCCCC2)cc1 [Compound 30] | 0.12 µM | 10 µM | 0.00667 µM | 0.0667 µM | 0.0625 µM | 0.77 µM |  | 9.4 times | 1500 times | 18 times | 115 times | 10 times |  |  |  | 
4 | NS(=O)(=O)c1ccc(N2CCC(=O)NC2=O)cc1 [Compound 5, 4-(2,4-Dioxo-1,3-diazinan-1-yl)benzene-1-sulfonamide] | 1.54 µM | 12.5 µM | 3.85 µM | 8.33 µM | 0.83 µM and 0.833 µM | 5.56 µM |  |  |  |  |  |  |  |  |  | 
5 | Nc1nnc(CCNc2ccc(S(N)(=O)=O)cc2)s1 [Compound 10, 4-{[2-(5-Amino-1,3,4-thiadiazol-2-yl)ethyl]amino}benzene-1-sulfonamide] | 100 µM | 140 µM | 170 µM | 83 µM | 20 µM | 130 µM |  |  |  |  |  |  | 1.7 times |  |  | 
6 | NS(=O)(=O)c1ccc(NCCC(=O)O)cc1 [Compound 3, 3-[(4-Sulfamoylphenyl)amino]propanoic Acid] | 22.2 µM | 62.5 µM | 40 µM | 33.3 µM | 12.5 µM | 9.5 µM |  |  |  |  |  |  |  |  |  | 
7 | CN(C)c1ccc(/C=N/NC(=O)CCNc2ccc(S(N)(=O)=O)cc2)cc1 [Compound 16] | 25 µM | 50 µM | 37 µM | 55.6 µM | 8.33 µM | 33.3 µM | 179 to 180.5 °C |  |  |  |  |  |  |  |  | 
8 | CC(=NNC(=O)CCNc1ccc(S(N)(=O)=O)cc1)c1ccccc1 [Compound 12, 4-{(2-[N'-(1-Phenylethylidene)hydrazinecarbonyl]ethyl}amino]benzene-1-sulfonamide] | 12.5 µM | 25 µM | 15.4 µM | 5.56 µM | 1.85 µM | 33.3 µM | 185 to 186 °C |  |  |  |  |  |  |  |  | 
9 | NCCS/N=N/c1ccc(S(N)(=O)=O)cc1 [Compound 33] | 1 µM | 8.3 µM | 0.5 µM | 2.86 µM | 0.278 µM | 6.25 µM |  |  |  |  |  |  |  |  |  | 
10 | NS(=O)(=O)c1ccc(/N=N/N2CCOCC2)cc1 [Compound 29] | 0.4 µM | 11.8 µM | 0.029 µM | 0.222 µM | 0.1 µM | 3.3 µM |  |  |  |  |  |  |  |  |  | 
11 | Cc1ccc(C)n1NC(=O)CCNc1ccc(S(N)(=O)=O)cc1 [Compound 19] | 11.1 µM | 25 µM | 16.7 µM | 6.25 µM | 2 µM | 28.6 µM |  |  |  |  |  |  |  |  |  | 
12 | CN(C)/N=N/c1ccc(S(N)(=O)=O)cc1 [Compound 26] | 0.769 µM | 13.3 µM | 0.1 µM | 0.4 µM | 0.181 µM | 2.7 µM |  |  |  |  |  |  |  |  |  | 
13 | NS(=O)(=O)c1ccc(N2CCC(=O)NC2=S)cc1 [Compound 6, 4-(4-Oxo-2-sulfanylidene-1,3-diazinan-1-yl)benzene-1-sulfonamide] | 1.61 µM | 8.3 µM | 1.11 µM | 2.86 µM | 0.67 µM and 0.667 µM | 5.56 µM |  |  |  |  |  |  |  |  |  | 
14 | NS(=O)(=O)c1ccccc1 [BSA, benzenesulfonamide] |  | 14 µM |  |  |  |  |  |  |  |  |  |  |  |  |  | 
15 | NS(=O)(=O)c1ccc(/N=N/SCCO)cc1 [Compound 32] | 0.286 µM | 3.2 µM | 0.0333 µM | 1.4 µM | 0.0667 µM | 2 µM |  |  |  |  |  |  |  | about six-fold stronger |  | 
16 | NS(=O)(=O)c1ccc(NCCC(=O)NNC(=S)Nc2ccccc2)cc1 [Compound 21, N-[(Phenylcarbamothioyl)amino]-3-[(4-sulfamoylphenil)amino]propanamide] | 5.56 µM | 8.3 µM | 9.09 µM | 9.09 µM | 4 µM | 5.56 µM |  |  |  |  |  |  |  |  |  | 
17 | CCN(CC)/N=N/c1ccc(S(N)(=O)=O)cc1 [Compound 27] | 0.2 µM | 13.3 µM | 0.0133 µM | 0.1 µM | 0.0714 µM | 0.588 µM |  |  |  |  |  |  |  |  |  | 
18 | NS(=O)(=O)c1ccc(NCCC(=O)NNC(=O)Nc2ccccc2)cc1 [Compound 20, N-[(Phenylcarbamoyl)amino]-3-[(4-sulfamoylphenyl)amino]propanamide] | 12.5 µM | 7.1 µM | 28.6 µM | 18.5 µM | 4 µM | 1.85 µM |  |  |  |  |  |  |  |  |  | 
19 | NC(=S)NNC(=O)CCNc1ccc(S(N)(=O)=O)cc1 [Compound 9, N-(Carbamothioylamino)-3-[(4-sulfamoylphenyl)amino]propanamide] | 28.6 µM | 50 µM | 58.8 µM | 76.9 µM | 10 µM | 33.3 µM |  |  |  |  |  |  |  |  |  | 
20 | NS(=O)(=O)c1ccc(NCCc2n[nH]c(=S)o2)cc1 [Compound 24, 4-{[2-(5-Sulfanylidene-4,5-dihydro-1,3,4-oxadiazol-2-yl)ethyl]amino}benzene-1-sulfonamide] | 4.55 µM | 33.3 µM | 12.5 µM | 26.3 µM | 4.55 µM | 5.88 µM |  |  |  |  |  |  |  |  |  | 
21 | NNC(=O)CCNc1ccc(S(N)(=O)=O)cc1 [Compound 8, 4-{[(2-Hydrazinecarbonyl)ethyl]amino}benzene-1-sulfonamide] | 28.6 µM | 62.5 µM | 55.6 µM | 76.9 µM | 10.5 µM | 33.3 µM |  |  |  |  |  |  |  |  |  | 
22 | COC(=O)CCNc1ccc(S(N)(=O)=O)cc1 [Compound 7, Methyl-3-[(4-sulfamoylphenyl)amino]propanoate] |  | 71.4 µM |  | 58.8 µM | 9.1 µM | 33.3 µM |  |  |  |  |  |  |  |  | 35.7 µM | 35.7 µM
23 | CCSC(=NS(=O)(=O)c1ccc(NCCC(=O)O)cc1)SCC [Compound 4, 3-[(4-{[Bis(ethylthio)methylene]sulfamoyl}phenyl)amino]propanoic Acid] | > 200 µM | > 200 µM | > 200 µM | > 200 µM | 40 µM | > 200 µM |  |  |  |  |  |  |  |  |  | 
24 | NS(=O)(=O)c1ccc(/N=N/N2CCCC2)cc1 [Compound 28] | 0.454 µM | 13.3 µM | 0.0333 µM | 0.167 µM | 0.133 µM | 1.81 µM |  |  |  |  |  |  |  |  |  | 

From paper PMC6271771, “4-Amino-substituted Benzenesulfonamides as Inhibitors of Human Carbonic Anhydrases” (Molecules, 2014)
